System: CSE knockout mice
Experiment: Inducible persistent AF (AF lasting more than 90 seconds after induction) in CSE knockout mice
Type: in vivo
Conditions: for risk of inducible persistent AF: 200 ug/kg retro-orbitally (i.e. I.V.) for three days
Excerpt: Homocysteine induced reactive oxygen species reduces the ability of eNOS to properly function in generating nitric oxide (NO).
FIGS. 11 to 12B show mouse Mouse Electrophysiology and AF induction in mice and persistent AF and short run or non-persistent AF.

SMILES	persistent AF (FIGS. 26A, 26B, 34A to 35B) (female CSE KO mice)	AF (electro cardio rhythms, FIGS. 25A and 25B) (female CSE KO mice, nitrite treated vs PBS)	incidence of inducible persistent AF (female CSE knockout mice, 165 ug/kg intraperitoneal for 3 days)	risk of inducible persistent AF (CSE knock out male mice)	risk of inducible persistent AF (female CSE knock out mice)
O=NO [sodium nitrite]	dramatically reduces	reduced	decrease	–	–
[N]=O [NO, nitric oxide]	Reduced	–	–	–	–
C=CCSSSCC=C [DATS, diallyl trisulfide]	–	–	–	reduced to near wild type levels	no noticeable risk reduction
